Peptide text beside a SMILES is read from it.
Legend:
[1] = test system: MMP13; assay: MMP13 enzymatic activity in cartilage extracts with inhibitors; assay type: biochemical, avian
Experimental: Utilizing a standard curve with MMP13 and MMP9 catalytic domains (Enzo, Inc) we quantitated the amount of MMP13 and MMP9 activity in cartilage extracts (Table 4). Cartilage isolated from day 17 avian embryos contain 0.166 units and 0.152 units MMP13 per 40 μg total tissue in early hypertrophic and late hypertrophic tissue, respectively. […] Inclusion of an inhibitor of MMP13 (Calbiochem) reduces the activity in both cartilage populations by 24% and 30% respectively.

[2] = test system: MMP; conditions: in vivo; cited from earlier work
[3] = test system: resting cartilage tissue extract (LTBP1-containing TGFβ large latent complex); assay: Peptide binding assay, resting cartilage tissue extract; parameters: species or system avian; conditions: 100 nM fluorescent-labeled peptide
Description: (§1) Cartilage from day 17 avian embryo sterna was extracted with 0.5% CHAPS buffer and binding assays conducted. Scr=scrambled control; +cold=unlabeled competition. *=p<0.001 compared to scrambled. ***=p<0.001 compared to MMP13-derived peptide by ANOVA with Tukey's Analysis. (A) Resting cartilage and MMP13-19 peptide. (B) Hypertrophic cartilage and MMP13-19 peptide. (C) Hypertrophic cartilage and MMP13-10 peptide D. hypertrophic cartilage and MMP13-6 peptide.
(§2) Twenty-five micrograms of total equal protein from cartilage CHAPS extracts or five nanograms recombinant protein of the calcium-like EGF binding domain of LTBP1 (a kind gift of Sarah Dallas) or hypertrophic cartilage from day 17 avian embryo sterna and tibial growth plate cartilage from day 14 newborn rat pups were extracted with 0.5% CHAPS buffer and eluates immunoprecipitated with polyclonal antibody to LTBP1 and then samples were plated onto poly-L-lysine coated 96 well plates. After overnight drying, the protein-coated wells were incubated with 100 nM fluorescent-labeled peptide in Tris buffered saline [150 mM NaCl, 10 mM Tris, pH 8.0] and 20% horse serum for 4 hours at 16° C. After incubation, the wells are washed twice with binding buffer, the protein layer solubilized with 5N NaOH and fluorescence bound measured at 495 nm excitation and 520 nm emission on the LabSystems Fluoroskan Ascent CF plate reader. […]

[4] = test system: hypertrophic chondrocyte-produced extracellular matrix (LTBP1 in native conformation); assay: Peptide binding to extracellular matrix of whole cell primary chondrocyte cultures; parameters: species or system avian
Experimental: (§3) Binding assays utilizing intact hypertrophic chondrocyte-produced extracellular matrix, LTBP1 immunoprecipitates of hypertrophic chondrocyte-produced extracellular matrix and recombinant protein of the calcium-binding, EGF-like domains of LTBP1 (30) were performed as described in Materials and Methods. *=p<0.001 compared to scrambled. ***=p<0.001 compared to MMP13-derived peptide by ANOVA with Tukey's analysis. (A) Intact hypertrophic chondrocyte-produced extracellular matrix and MMP13-19 or MMP13-10 peptide binding. (B) 25 μg eluates of hypertrophic cartilage immunoprecipitated with polyclonal antibody to LTBP1 and MMP13-19 peptide binding. (C) 15 ng of recombinant protein of the calcium-binding, EGF-like domains and MMP13-19 or MMP13-10 or MMP13-6 peptide binding.
Sterna were removed from day 17 chick embryos using microsurgical techniques as previously described (D'Angelo et al., J. Bone Miner. Res. 12:1368-1377, 1997). […] The cell suspensions were then filtered through a […] filter, counted, seeded onto Falcon 6-well, tissue culture treated plates and covered with 2 ml of high glucose DMEM containing 10% NuSerum and 50 μg/ml of penicillin/streptomycin, 2 mM of L-glutamine (Invitrogen Life Technologies, Carlsbad, Calif., USA). […]

[5] = test system: calcium-binding EGF-like domains of LTBP1 (CE-LTBP1); assay: Peptide binding to recombinant calcium-binding EGF-like domains of LTBP1 (CE-LTBP1)
Experimental: as §3, with “(C) 15 ng of recombinant protein of the calcium-binding, EGF-like domains and MMP13-19 or MMP13-10 or MMP13-6 peptide binding.” left out
as §2, with “After overnight drying, the protein-coated wells were incubated with 100 nM fluorescent-labeled peptide in Tris buffered saline [150 mM NaCl, 10 mM Tris, pH 8.0] and 20% horse serum for 4 hours at 16° C.” left out

[6] = test system: hypertrophic cartilage tissue extract (LTBP1-containing TGFβ large latent complex); assay: Peptide binding assay, hypertrophic cartilage tissue extract; parameters: species or system avian; conditions: 100 nM fluorescent-labeled peptide
Description: as §1, §2

[7] = Toxicity in vivo by blood analysis; parameters: species or system rat
Experimental: Cytotoxicity was assessed by Alomar Blue Assay (Invitrogen) on primary chondrocytes and a monocyte cell line incubated for 24 hours with PxTx001-1. Absorbance was recorded at 570 nm for every hour up to 24 hrs to monitor both proliferation and metabolic activity. (FIG. 39). Toxicity in vivo was determined by blood analysis from rats that had been injected with the peptide as described previously. Total cell count, blood components and serum proteins were measured (Table 5).

[8] = test system: mono-iodoacetate (MIA)-induced osteoarthritis; assay: MIA-induced osteoarthritis, cartilage mineralization (total and bone volume), d14 and d21; assay type: in vivo, rat; parameters: Total Volume / Bone Volume: unit not given here
Experimental: Isolated joints were analyzed by Micro CT to measure cortical bone, trabecular bone and cartilage of the patella, femur and tibia, the production of chondrophytes and tissue mineralization in response to treatment. Total mineralization in the patella, femur and tibial cartilages, as well as subchondral bone, were calculated with Scanco μCT software. Micro-CT was conducted with a Scanco uCT 35 (Scanco Medical, Bassersdorf, Switzerland) system. Scans of 15 μm voxel size, 55 KVp, 0.36 degrees rotation step (180 degrees angular range) and a 600 ms exposure per view produced from joints immersed in phosphate buffered saline.
Animals were treated with MMP13-19 peptide or BMP-7 protein once a week for two (d14) or three (d21) weeks following an injection of mono-iodoacetate (MIA), a chemical agent that induces osteoarthritis pathology measurable at four weeks post injection. The samples that received saline are the positive disease control. 250 nM of MMP13-19 peptide and 50 uM BMP-7 were injected laterally below the patellar ligament. […] But, it is also known that BMP-7 is bone-inducing.

[9] = test system: MIA-induced OA model; assay: Acute treatment of MIA-induced OA, week 4 micro CT; assay type: in vivo, rat

Q: For `Cc1cc(CNC(=O)c2cc(C(=O)NCc3ccc(F)c(C)c3)ncn2)ccc1F` [MMP13 Inhibitor], which “reduction of MMP13 activity” value ([1]; early hypertrophic tissue) is on record?
A: Its value is 24%.

Q: And the “reduction of MMP13 activity” value ([1]; late hypertrophic tissue)?
A: The value was 30%.

Q: For `CC1(C)SCCN(S(=O)(=O)c2ccc(Oc3ccncc3)cc2)[C@H]1C(=O)NO` [prinomastat], which “side-effects in treatment of OA” value [2] is on record?
A: The value was “severe side-effects known as MMP-induced musculoskeletal syndrome”.

Q: Which “binding compared to scrambled peptide control” value [3] does the source give for “MMP13-10 peptide: amino acids 17-26 of SEQ ID NO: 1 (LRGETMIFKD; listed as Homo sapiens)” here?
A: Its value is “less than two-fold”.

Q: What about the “binding compared to scrambled peptide” value [4] of the same molecule?
A: The value was “four-fold”.

Q: What about the “binding of recombinant protein more than scrambled peptide” value [5] of the same molecule?
A: Its value is “did not bind specifically”.

Q: And the “binding compared to scrambled peptide control” value [6]?
A: Its value is “less than two-fold”.

Q: With `COc1ccc(S(=O)(=O)N(Cc2cccnc2)[C@@H](C(=O)NO)C(C)C)cc1` [CGS-27023A] as the molecule, how does the “side-effects in treatment of OA” value [2] read?
A: Its value is “severe side-effects known as MMP-induced musculoskeletal syndrome”.

Q: Which “binding compared to scrambled peptide control” value [3] does the source give for “MMP13-6 peptide: amino acids 37-42 of SEQ ID NO: 1 (VDAELF; listed as Homo sapiens)” here?
A: The value was “did not specifically bind”.

Q: What about the “binding compared to scrambled peptide” value [4] of the same molecule?
A: The value was “did not bind specifically”.

Q: What about the “binding of recombinant protein more than scrambled peptide” value [5] of the same molecule?
A: The value was “did not bind specifically”.

Q: What about the “binding compared to scrambled peptide control” value [6] of the same molecule?
A: Its value is “did not specifically bind”.

Q: What does the source list for `CC[C@H](C)[C@H](NC(=O)[C@H](CCCCN)NC(=O)[C@H](CCCCN)NC(=O)[C@@H](NC(=O)[C@H](CCC(=O)O)NC(=O)[C@H](CCCCN)NC(=O)[C@@H]1CCCN1C(=O)[C@H](CC(C)C)NC(=O)CNC(=O)[C@H](CC(C)C)NC(=O)[C@@H](N)CCC(=O)O)C(C)C)C(=O)N[C@@H](CO)C(=O)N[C@@H](C)C(=O)N[C@@H](C)C(=O)N[C@H](C(=O)N[C@@H](Cc1c[nH]cn1)C(=O)N[C@@H](Cc1ccccc1)C(=O)N[C@@H](CCC(=O)O)C(=O)N[C@@H](CC(=O)O)C(=O)O)C(C)C` [MMP13-19 peptide] (H-ELGLPKEVKKISAAVHFED-OH)?
A: ALT ([7]; 1 injection): 56 U/L; AST ([7]; 1 injection): 99 U/L; Alk Phos ([7]; 1 injection): 272 U/L; BUN ([7]; 1 injection): 15 mg/dL; Cholesterol ([7]; 1 injection): 74 mg/dL; Creatinine ([7]; 1 injection): 0.4 mg/dL; RBC ([7]; 1 injection): 5.59e+06 µL⁻¹; Total Bilirubin ([7]; 1 injection): 0.3 mg/dL; WBC ([7]; 1 injection): 3600 µL⁻¹; ALT ([7]; 4 injections): 52 U/L; AST ([7]; 4 injections): 95 U/L; Alk Phos ([7]; 4 injections): 194.5 U/L; BUN ([7]; 4 injections): 18 mg/dL; Cholesterol ([7]; 4 injections): 67.5 mg/dL; Creatinine ([7]; 4 injections): 0.3 mg/dL; RBC ([7]; 4 injections): 6.9e+06 µL⁻¹; Total Bilirubin ([7]; 4 injections): 1.1 mg/dL; WBC ([7]; 4 injections): 4550 µL⁻¹; total cell count, blood components and serum proteins (all parameters measured) ([7]; rats injected with the peptide): within normal ranges

B1: BMP-7: BMP-7 protein, positive control, chondroprotective and bone-inducing (protein, UniProt P18075 293-431, looked up)
Bone morphogenetic protein 7: STGSKQRSQNRSKTPKNQEALRMANVAENSSSDQRQACKKHELYVSFRDLGWQDWIIAPEGYAAYYCEGECAFPLNSYMNATNHAIVQTLVHFINPETVPKPCCAPTQLNAISVLYFDDSSNVILKKYRNMVVRACGCH
Q: Which BV/TV ([8]; Patellar cartilage d14) does the source give for B1 here?
A: Its BV/TV is 0.0626.

Q: And the “Bone Volume” value ([8]; Patellar cartilage d14)?
A: The value was 0.419.

Q: And the “Total Volume” value ([8]; Patellar cartilage d14, 250 nM peptide or 50 uM BMP-7 once a week)?
A: The value was 6.6967.

Q: And the BV/TV ([8]; Patellar cartilage d21)?
A: The BV/TV was 0.0192.

Q: What about the “Bone Volume” value ([8]; Patellar cartilage d21) of the same molecule?
A: Its value is 0.2037.

Q: And the “Total Volume” value ([8]; Patellar cartilage d21)?
A: The value was 10.7748.

Q: What about the BV/TV ([8]; Total Joint Cartilage d14) of the same molecule?
A: Its BV/TV is 0.0435.

Q: And the “Bone Volume” value ([8]; Total Joint Cartilage d14)?
A: Its value is 1.0643.

Q: And the “Total Volume” value ([8]; Total Joint Cartilage d14)?
A: The value was 24.4891.

Q: And the BV/TV ([8]; Total Joint Cartilage d21)?
A: Its BV/TV is 0.0412.

Q: And the “Bone Volume” value ([8]; Total Joint Cartilage d21)?
A: Its value is 0.9607.

Q: What about the “Total Volume” value ([8]; Total Joint Cartilage d21) of the same molecule?
A: Its value is 23.3101.

Q: What about the “BV/TV (ratio of bone volume to total volume)” value ([9]; Femur) of the same molecule?
A: Its value is 0.2245 +/− 0.066.

Q: And the “TbN (trabecular number)” value ([9]; Femur)?
A: The value was 4.200 +/− 0.830.

Q: What about the “TbN (trabecular number)” value ([9]; Patella) of the same molecule?
A: The value was 6.2122 +/− 0.169.

Q: And the “BV/TV (ratio of bone volume to total volume)” value ([9]; Patella, 250 nM peptide or 500 ng BMP7 weekly infrapatellar)?
A: Its value is 0.6846 +/− 0.084.

Q: What about the “BV/TV (ratio of bone volume to total volume)” value ([9]; Tibia) of the same molecule?
A: Its value is 0.1757 +/− 0.087.

Q: What about the “TbN (trabecular number)” value ([9]; Tibia) of the same molecule?
A: Its value is 4.9095 +/− 0.719.

Reference: US9260707B2, “Compounds for inhibition of MMP13-substrate interactions and methods of use thereof to treat osteoarthritis and cartilage degeneration” (ProteaPex Therapeutics, LLC, priority 2010, dated 2016)
